Patent US11318135B2 (priority 2020, dated 2022)
“Also recorded” adds a separate entry of the source. Where two headings read alike, the source gives them in different places.

Columns and labels:
SARS-CoV-2 = format: cell-based, SARS-CoV-2 (nCoV-2019BetaCoV/Wuhan/WIV04/2019 strain)
SARS coronavirus = format: in vivo, A129 mice; settings: for Death rate: once daily from 4 h to 144 h after challenge, 1*10^6 PFU; for Protection of SARS coronavirus-infected mice from death: intraperitoneal once a day from 4 hours after challenge, 50-200 mg/kg
Vero E6 cells = settings: Vero E6, 48 h
EBOV-Zaire type [1] = settings: virus titer in supernatant, Vero E6 cell line, read-out: half-inhibitory concentration (IC50); cited from earlier work
[2] = 300 mg/kg/d from day 6 to day 13, cited from earlier work
Vero C1008 cells = settings: high concentration of 1.95 g/L; cited from earlier work
EBOV-Zaire type [3] = settings: drug concentration of above 62.5 mg/L; cited from earlier work
[4] = cited from earlier work

SMILES: NC(=O)c1nc(F)cnc1O [Favipiravir, 6-fluoro-3-hydroxypyrazine-2-carboxamide]
- Reduction of viral RNA load in the cells (SARS-CoV-2): the inhibitory activity is dose-dependent
- Inhibition of replication of the SARS-CoV-2 virus genome in the infected supernatant (SARS-CoV-2; at concentrations of 100 μM, 33 μM, 11.1 μM and 3.7 μM): could effectively inhibit
- Reduction of viral nucleic acid load in cells infected by SARS-CoV-2 (SARS-CoV-2; at micromolar concentration level): can reduce the viral nucleic acid load
- Death rate (SARS coronavirus; 50 mg/kg intraperitoneal): 100%
- Death rate (SARS coronavirus; 100 mg/kg intraperitoneal): 50%
- Death rate (SARS coronavirus; 200 mg/kg intraperitoneal): 0%
- Protection of SARS coronavirus-infected mice from death (SARS coronavirus): can effectively protect mice; also recorded: the survival rate is dose-dependent
- Protection of SARS coronavirus-infected mice from death (SARS coronavirus; listed as compound represented by Formula I): significant protective effect
- Cell viability (% of vehicle control) (Vero E6 cells; 0.14 μM): 101.61 ± 0.74 % of vehicle control
- Cell viability (% of vehicle control) (Vero E6 cells; 0.41 μM): 101.38 ± 3.85 % of vehicle control
- Cell viability (% of vehicle control) (Vero E6 cells; 1.23 μM): 98.57 ± 1.90 % of vehicle control
- Cell viability (% of vehicle control) (Vero E6 cells; 3.70 μM): 99.09 ± 4.91 % of vehicle control
- Cell viability (% of vehicle control) (Vero E6 cells; 11.11 μM): 96.42 ± 4.77 % of vehicle control
- Cell viability (% of vehicle control) (Vero E6 cells; 33.33 μM): 95.21 ± 4.43 % of vehicle control
- Cell viability (% of vehicle control) (Vero E6 cells; 100 μM): 96.37 ± 1.26 % of vehicle control
- IC50 (EBOV-Zaire type [1]): 67 µM
- protection rate ([2]; challenge dose of 100% death of placebo group): 100%
- body weight, glutamic-pyruvic transaminase, glutamic-oxalic transaminase, viremia [2]: improved significantly
- Cytotoxicity to Vero C1008 cells (Vero C1008 cells): not cytotoxic
- Inhibition of cytopathic effect (CPE) of EBOV-Zaire type (EBOV-Zaire type [3]): completely inhibit
- mice protected from death ([4]; intragastric 300 mg/kg/d (2 times/d, 150 mg/kg per time) from 1 h after challenge for 14 days): 100%
- body weight of the mice in the administration group ([4]; intragastric 300 mg/kg/d for 14 days): significantly improved
